Laboratory results taken from PubChem BioAssay AID2633 (Broad Institute, 2010).
The source made the active and inactive calls. The rule behind the calls is not given here.

Each molecule was assayed on DRD oncogenic fibroblast cytotoxicity, fluorescence viability (assay: killing of non-viral transformed DRD fibroblasts – cell-based, fluorescence viability readout, dose response (AID 2633)).

Structure (SMILES) | EC50
Cc1ccc(Nc2nc(N)nc(CCl)n2)c(C)c1 | 499 nM
Cc1cccc(Nc2nc(N)nc(CCl)n2)c1 | 2180 nM
CCN1/C(=C\C=C\C2=[N+](CC)c3ccccc3C2(C)C)C(C)(C)c2ccccc21 | 249 nM
COc1ccc(OC)c(Nc2nc(N)nc(CCl)n2)c1 | 1520 nM
CC[C@@]1(O)C(=O)OCc2c1cc1n(c2=O)Cc2cc3c(N)cccc3nc2-1 | 129 nM
O=S(=O)(c1ccc2c(c1)C(=NO)c1cc(S(=O)(=O)N3CCCCC3)ccc1-2)N1CCCCC1 | 2120 nM
Cc1ccc(N(C(=O)CCl)C(C(=O)NC2CCCCC2)c2cccnc2)cc1C (stereo not drawn) | 75.6 nM
C=C1C(=O)O[C@@H]2C[C@@H](C)[C@@H]3C=CC(=O)[C@@]3(C)[C@@H](OC(=O)CC(=O)O[C@H]3[C@@H]4C(=C)C(=O)O[C@@H]4C[C@@H](C)[C@@H]4C=CC(=O)[C@]43C)[C@H]12 | 32.4 nM
COC(=O)C[C@](O)(CCCC(C)(C)O)C(=O)O[C@@H]1C(OC)=C[C@]23CCCN2CCc2cc4c(cc2[C@H]13)OCO4 | 4.64 nM
COc1ccc(N(C(=O)CCl)C(C(=O)NCCc2ccccc2)c2cccs2)cc1Cl (stereo not drawn) | 25.3 nM
CC[C@@]1(O)C(=O)OCc2c1cc1n(c2=O)Cc2cc3ccccc3nc2-1 | 454 nM
CC(C)C(=O)Nc1ccc(C(=O)NCc2cccnc2)cc1 | > 6670 nM (inactive)
COc1ccc(S(=O)(=O)N2CCOCC2)cc1NC(=O)CCNC(=O)c1ccc(Br)cc1 | > 6670 nM (inactive)
Oc1ccccc1N=Nc1nc(-c2ccccc2)c(-c2ccccc2)[nH]1 | 378 nM
CCOc1ccc(Nc2nc(N)nc(CCl)n2)cc1 | 575 nM
O=C(NCc1cccnc1)c1ccc(NC(=O)c2cccc([N+](=O)[O-])c2)cc1 | > 6670 nM (inactive)
O=C(CCCCCN1C(=O)c2cccc3cccc(c23)C1=O)NCc1cccnc1 | > 6670 nM (inactive)
COc1cccc(N(C(=O)CCl)C(C(=O)NCCc2ccccc2)c2cccs2)c1 (stereo not drawn) | 280 nM
CCc1ccc(/C=C2/SC(=S)N(CCC(=O)Nc3cccnc3)C2=O)cc1 | > 6670 nM (inactive)
CC[C@@]1(O)C(=O)OCc2c1cc1n(c2=O)Cc2cc3c(NC(=O)CN)cccc3nc2-1 | 4610 nM

Structure (SMILES) | EC50
O=C(Cc1ccc([N+](=O)[O-])cc1)N/N=C/c1ccc([N+](=O)[O-])o1 | > 6670 nM (inactive)
COc1ccc(Cc2nc(-c3ccc(NC(=O)c4cccnc4)cc3)no2)cc1 | > 6670 nM (inactive)
Cc1ccc(/C=C2\SC(=S)N(CCCC(=O)N3CCOCC3)C2=O)cc1 | > 6670 nM (inactive)
CC[C@H]1CN2CCc3cc(OC)c(OC)cc3[C@@H]2C[C@@H]1C[C@H]1NCCc2cc(OC)c(OC)cc21 | 9.12 nM
Cc1onc(C(=O)N2CCN(C(c3ccccc3)c3ccccc3)CC2)c1[N+](=O)[O-] | 1300 nM
CCc1ccc(/C=C2\SC(=S)N(CCC(=O)NCCCN3CCOCC3)C2=O)cc1 | 4700 nM
COc1ccc(CN(CCC(c2ccccc2)c2ccc(OC(C)C)cc2)C(=O)CCl)cc1OC (stereo not drawn) | 1480 nM
CN1CCN(C(=O)CCCN2C(=O)/C(=C/c3cccc(Br)c3)SC2=S)CC1 | > 6670 nM (inactive)
CC(C)c1onc(C(=O)N2CCN(C(c3ccccc3)c3ccccc3)CC2)c1[N+](=O)[O-] | 617 nM
CCc1ccc(/C=C2/SC(=S)N(CCC(=O)NCCCN3CCOCC3)C2=O)cc1 | 5320 nM
O=C(N/N=C/c1cccnc1)c1ccc(NC(=O)C(c2ccccc2)c2ccccc2)cc1 | > 6670 nM (inactive)
Cc1cccnc1Nc1nc(-c2ccccn2)cs1 | 428 nM
Cc1cccc(Nc2nc(N)nc(CCl)n2)c1C | 568 nM
COc1ccc(/C=N/NC(=O)c2[nH]c3ccc(Br)cc3c2-c2ccccc2)cc1 | 134 nM
CC(=O)Nc1ccc(NC(=O)CN(c2cccc([N+](=O)[O-])c2)S(C)(=O)=O)cc1 | > 6670 nM (inactive)
CC[C@@]1(O)C(=O)OCc2c1cc1n(c2=O)Cc2cc3c(CN(C)C)c(O)ccc3nc2-1 | 820 nM
C=CCOc1ccccc1CN(C(=O)CCl)c1ccc2c(c1)OCO2 | 2430 nM
COc1ccc(N(C(=O)CCl)C(C(=O)NCCc2ccccc2)c2cccs2)cc1 (stereo not drawn) | 447 nM
O=C1SC(Cc2ccccc2)C(=O)N1c1ccccc1 (stereo not drawn) | > 6670 nM (inactive)
CC(Oc1ccc(Cl)cc1Cl)c1nc(-c2ccc(NC(=O)c3cccnc3)cc2)no1 (stereo not drawn) | > 6670 nM (inactive)

Structure (SMILES) | EC50
Nc1nc(CCl)nc(Nc2cccc3ccccc23)n1 | 660 nM
COc1ccc(C[C@H]2NC[C@H](O)[C@H]2OC(C)=O)cc1 | 44.7 nM
COc1ccc(C(C(=O)NC2CCCCC2)N(C(=O)CCl)c2cccc(Cl)c2)cc1 (stereo not drawn) | 48.6 nM
Cc1cccc(OCC(=O)Nc2ccc(C(=O)NCc3cccnc3)cc2)c1 | > 6670 nM (inactive)
CCCCCCCN(C(=O)CCl)c1cccc(C)c1 | 1090 nM
CC1=CC(=O)C=C(C)C1=NOc1ccccc1[N+](=O)[O-] | > 6670 nM (inactive)
C/C(=N\Nc1ncc(Cl)cc1Cl)c1ccccn1 | 19.6 nM
CCOc1ccc(CC(=O)Nc2ccc(NC(=O)c3ccco3)cc2)cc1OCC | > 6670 nM (inactive)
O=C(NCc1cccnc1)c1ccc(NC(=O)c2ccc([N+](=O)[O-])cc2)cc1 | > 6670 nM (inactive)
COC(=O)[C@@H]1Cc2c([nH]c3ccccc23)C(C)(C)N1C(=O)CCl | 1010 nM
Nc1nc(CCl)nc(Nc2ccc3ccccc3c2)n1 | 182 nM
Cc1ccc(C(=O)Sc2cccccc2=O)cc1 | 55.4 nM
Cc1ccccc1Nc1nc(N)nc(CCl)n1 | 1980 nM
O=C(COc1ccc(Cl)cc1)Nc1ccc(C(=O)NCc2cccnc2)cc1 | > 6670 nM (inactive)
COc1ccc(C(C(=O)NC2CCCCC2)N(C(=O)CCl)c2ccc(C)cc2)cc1 (stereo not drawn) | 737 nM
Cc1ccc(C2CC(c3cccs3)=NN2C(=O)CCl)cc1 (stereo not drawn) | 1420 nM
O=C(CCl)N=c1sccn1Cc1ccccc1Cl | 126 nM
COc1ccc(-c2nnc(NC(=O)c3ccc(S(=O)(=O)N4CCc5ccccc5C4)cc3)o2)cc1 | > 6670 nM (inactive)
